Laboratory results from patent publication US20250381173A1, “Long-Lasting Anaesthetic Formulation” (BERTIE INTERNATIONAL AB, priority 2022, published 2025).
Values joined by “and” are separate entries in the source; they are usually repeats but may differ in a detail not shown here. Equal entries are not always repeated.

Key:
[1] = test system: female rats; assay: Local anesthesia efficacy test, prick test after one s.c. injection; assay type: in vivo, Sprague Dawley rats; conditions: 0.25 mg/kg s.c.
Procedure: (§1) In order to evaluate administration of local anesthesia in a sensitivity test in female rats a pilot- and an efficacy study was performed.
(§2) Sprauge Dawley rats (females, 10 weeks) were acquired from Janvier Europe. Rats were housed in the animal facility, Medicon Village, Lund, Sweden. The rats were kept at 12 h light/dark cycles in polystyrene cages (type III cages, 2-3 rats per cage) comprising wood shavings. The rats were fed with standard rodent diet and water ad libitum. The rats were acclimatized for approximately one week before initiation of the experiment. The rats were identified by a marking on the tail with a permanent marker day 1.
Formulation of reference anesthesia Ropivacaine, was prepared in the same way as for the pilot study.
The rats were shaved at the back and habituated to the experimental environment for 30 minutes prior to the testing. The sensitivity test was performed at 6 different time points within 6 hours after administration of the test item (30 min, 1 h, 2 h, 3 h, 4 h, 5 h) by touching each rat with a needle. The rat's reaction in the form of wrinkling of the skin was evaluated by ocular inspection, giving each monitored response a value of 0 (no response) or 1 (response).

[2] = test system: sciatic nerve; assay: In vivo test 3: sensitivity test (tweezer), motor and sensor block after s.c. injection close to the sciatic nerve; design: species or system Wistar albino rats
Procedure: Male Wistar albino rats, weighing 200-250 g, obtained from SYLAB Experimental Animals Laboratory, were used in the experiments. The animals were kept in a 12 hour light-12 hour dark light period under standard conditions and fed with standard pellet water (ad libitum). All studies were carried out in accordance with international ethical rules, without abusing animal rights.
Formulations used were the same as in Example 2, with additional storage. The formulations were stored for 7 months at different temperatures. At first, the formulations were stored in the freezer for 6 months. Thereafter there were alterations in temperature storage; the formulations were iteratively stored in room temperature and in the fridge before use.
The compositions were administrated s. c. in one single injection at time 0. The compositions were administrated to a position in close proximity to the sciatic nerve. • Group 1: Ropivacaine 7.5 mg/ml, 1.1-1.2 ml. Total=at least 8.25 mg ropivacaine. This composition is commercial ropivacaine (Ropivacaina Inibsa, injectable solution). • Group 2: Ropivacaine 4 mg/ml, 2 ml, pH 5 (Test 1). Total=8 mg ropivacaine.
The sensitivity test was performed at 9 different time points within 9 hours after administration of the test item (1 h, […], 2 h, 3 h, 4 h, 5 h, 6 h, 7 h, 8 h and 9 h) by touching each rat with a tweezer. The rat's reaction in the form of wrinkling of the skin was evaluated by ocular inspection, giving each monitored response a value of 0 (no response), 0.5 (low response) or 1 (response).

[3] = test system: female rats; assay: Local anesthesia pilot study, prick (sensitivity) test after one s.c. injection; assay type: in vivo, Sprague Dawley rats; conditions: data not shown
Procedure: as §1, §2
Formulation of reference anesthesia ropivacaine, was prepared such that the pH of the composition and the concentration and dose of ropivacaine where essentially identical to the compositions of the invention. The concentration of Ropivacaine was 5 mg/ml in the formulation and was administered at a dose of 1 mg/kg bodyweight in 2 animals, 0.25 mg/kg bodyweight in 2 animals; and placebo PBS (phosphate buffered saline) in 2 animals. The vehicle and reference anesthesia were administrated s. c. (subcutaneous) in one single injection at time 0.
The rats were shaved at the back and habituated to the experimental environment for 30 minutes prior to the testing. […] The rat's reaction in the form of wrinkling of the skin was evaluated by ocular inspection.

[4] = Impurity analysis: 2,6-dimethylaniline (Impurity H) by UPLC-UV and UPLC-UV-MS; assay type: physicochemical
Procedure: Qualitative LC-analyzes were performed on samples from the stage in the formulation procedure after ropivacaine was added. LC analyzes with ultraviolet light (UV) detection were performed on a Thermo Fischer Scientific Vanquish UPLC instrument employing a Waters BEH C18 1.7 um 2.1*150 mm chromatographic column at 0.3 mL/min flow rate and otherwise method according to European pharmacopoeia 11.1, monograph 01/2017:2335 ‘Ropivacaine Hydrochloride Monohydrate’.
LC analyzes with UV and MS detection were carried out on a Waters Acquity UPLC Quattro Micro MS-instrument with electrospray ionisation (ESI) in positive-negative switching mode. The method used was based on monograph 01/2017:2335 as above, however, the mobile phase was changed to a MS-compatible one; instead of phosphate buffer 0.1% NH3/MeCN with gradient elution was used.
One of the impurities of ropivacaine specified in the pharmacopeial monograph Eu Pharm 11.1, 01/2017:2335 as Impurity H, the carcinogenic 2,6-dimethylaniline, was analyzed in prepared formulations by LC-UV and LC-UV-MS against 2,6-dimethylaniline reference material.
Specified Impurity H of ropivacaine of Ph. Eur. 11.1, 01/2017:2335-2,6-dimethylaniline—was not detected (<0.05 area-%), neither in the ropivacaine reference standard nor in the formulated samples of ropivacaine of microwave heated triethanolamine, as analyzed by UPLC-UV (240 nm) and UPLC-UV-MS (Full scan m/z 50-800). As such, it was concluded that 2,6-dimethylaniline is not produced in the treatment of a formulation of the present disclosure.

[5] = individual rat, score 0, 0.5 or 1, 0 h
[6] = individual rat, score 0, 0.5 or 1, 1 h
[7] = individual rat, score 0, 0.5 or 1, 2 h
[8] = individual rat, score 0, 0.5 or 1, 3 h
[9] = individual rat, score 0, 0.5 or 1, 4 h
[10] = individual rat, score 0, 0.5 or 1, 5 h
[11] = individual rat, score 0, 0.5 or 1, 6 h
[12] = individual rat, score 0, 0.5 or 1, 7 h

Compound: CCCN1CCCC[C@H]1C(=O)Nc1c(C)cccc1C [Ropivacaine, ropivacaine]
- Average value of first response ([1]; group of 3 rats): 1.8 h
- Prick test response, 0.5 h ([1]; individual rat, 0 = no response (anesthesia), 1 = response, 0.5 mg/ml, 0.5 h, 0.25 mg/kg): 0 (2×) and 1
- Prick test response, 1 h ([1]; individual rat, 0 = no response (anesthesia), 1 = response, 1 h, 0.25 mg/kg): 0 (2×) and 1
- Prick test response, 2 h ([1]; individual rat, 0 = no response (anesthesia), 1 = response, 2 h, 0.25 mg/kg): 1 (2×) and 0
- Prick test response, 3 h ([1]; individual rat, 0 = no response (anesthesia), 1 = response, 3 h): 1
- Prick test response, 4 h ([1]; individual rat, 0 = no response (anesthesia), 1 = response, 4 h, 0.25 mg/kg): 1 (2×) and 0
- Prick test response, 5 h ([1]; individual rat, 0 = no response (anesthesia), 1 = response, 5 h): 1
- Loss Motor block, average ([2]; group average): 3.3 h
- loss of Sensor block, average ([2]; group average): 4.3 h
- Loss Motor block ([2]; individual rat): 4 h (4×) and 3 h (2×)
- loss of Sensor block ([2]; individual rat): 6 h (2×) and 3 h (2×) and 4 h (2×)
- Motor Block, test time 0 h [2, 5]: 1 (5×) and 0.5
- Sensor Block, test time 0 h [2, 5]: 1
- Motor Block, test time 1 h [2, 6]: 1 (5×) and 0.5
- Sensor Block, test time 1 h [2, 6]: 1
- Motor Block, test time 2 h [2, 7]: 1 (4×) and 0.5 (2×)
- Sensor Block, test time 2 h [2, 7]: 1
- Motor Block, test time 3 h [2, 8]: 0.5 and 0 (3×) and 1 (2×)
- Sensor Block, test time 3 h [2, 8]: 1 (4×) and 0 (2×)
- Motor Block, test time 4 h [2, 9]: 0
- Sensor Block, test time 4 h [2, 9]: 1 and 0 (4×) and 0.5
- Motor Block, test time 5 h [2, 10]: 0
- Sensor Block, test time 5 h [2, 10]: 1 and 0 (2×) and 0.5
- Motor Block, test time 6 h [2, 11]: 0
- Sensor Block, test time 6 h [2, 11]: 0
- Motor Block, test time 7 h [2, 12]: 0
- Sensor Block, test time 7 h [2, 12]: 0
- duration of the anesthetic effect ([3]; 0.25 mg/kg bodyweight s.c.): 2 h
- duration of the anesthetic effect ([3]; 1 mg/kg bodyweight s.c.): 5 h
- Impurity H (2,6-dimethylaniline), UPLC-UV-MS ([4]; Full scan m/z 50-800): Not detected
- Impurity H (2,6-dimethylaniline), UPLC-UV ([4]; UV 240 nm): Not detected
- 2,6-dimethylaniline (Impurity H) level ([4]; not detected, UPLC-UV (240 nm) and UPLC-UV-MS): < 0.05 area-%
